Source: patent publication US20150118315A1, “AROMATIC-CATIONIC PEPTIDES AND USES OF SAME” (Stealth Peptides International, Inc., priority 2011, published 2015)

Columns and labels:
[1] = Blood levels of salmon calcitonin after injection into duodenum, ileum or colon; type: in vivo; details: rat, other: injected directly into the duodenum, active components injected directly into the duodenum
Text: The pH-lowering agent is believed to lower the local pH (where the active agent has been released) to levels below the optimal range for many intestinal proteases. This decrease in pH reduces the proteolytic activity of the intestinal proteases, thus affording protection to the peptide from potential degradation should the peptide be present within the intestine. The activity of these proteases is diminished by the temporarily acidic environment as discussed herein. For example, sufficient acid should be provided that local intestinal pH is lowered temporarily to 5.5 or below, 4.7 or below, or 3.5 or below. The sodium bicarbonate test described below (in the section captioned “the pH-Lowering Agent”) is indicative of the required acid amount. […] The absorption enhancers of the present formulations synergistically promote peptide absorption into the blood while conditions of reduced proteolytic activity prevail. The mechanism by which the present formulations are believed to accomplish the goal of enhanced bioavailability is aided by having active components of the finished pharmaceutical product released together as simultaneously as possible.
The acid is believed to lower the local intestinal pH, where the aromatic-cationic peptide has been released, to levels below the optimal range for many intestinal proteases and other intestinal enzymes. […]

[2] = dog, in vivo
Description: A second series of tests will be carried out, as noted above, using beagle dogs. […] In the experiments, size 00 HPLC capsules will be filled with 758 mg of a powdered blend consisting of citric acid (643 mg), lauroyl carnitine (66 mg), talc (33 mg), salmon calcitonin (sCT) (13 mg) and aromatic-cationic peptide (2.4 mg). Half of the capsules will be coated with an enteric coating solution of L30D-55, while the remaining 50% of the capsules will not be coated. Four fasted dogs will be each given 1 uncoated capsule, and 2 weeks later they will be each given an enteric coated capsule. […] The plasma samples will be subsequently analyzed for sCT by a direct ELISA, and for aromatic-cationic peptide by HPLC-mass spectrometry performed as set forth in Wan, H. and Desiderio, D., Quantitation of dmt-DALDA in ovine plasma by on-line liquid chromatography/quadrapole time-of-flight mass spectrometry, Rapid Communications in Mass Spectrometry, 2003; 17, 538-546, the contents of which are incorporated herein by reference.
The results will be summarized as plasma peptide concentration normalized to a 1 mg dose as a function of time relative to the average Tmax, (i.e., the time at which the maximum amount of peptide is detected). The results are expected to indicate that both peptides, i.e., sCT and aromatic-cationic peptide, are detected in dogs given uncoated or enteric coated capsules.

Tmax [1]: 5 to 15 min | amount detected in plasma, enteric coated vs non-coated capsules [2]: nearly eight times
Structure (SMILES): CC(C)C[C@H](NC(=O)[C@H](CCCCN)NC(=O)CNC(=O)[C@H](CC(C)C)NC(=O)[C@@H](NC(=O)[C@@H]1CSSC[C@H](N)C(=O)N[C@@H](CO)C(=O)N[C@@H](CC(N)=O)C(=O)N[C@@H](CC(C)C)C(=O)N[C@@H](CO)C(=O)N[C@@H]([C@@H](C)O)C(=O)N1)C(C)C)C(=O)N[C@@H](CO)C(=O)N[C@@H](CCC(N)=O)C(=O)N[C@@H](CCC(=O)O)C(=O)N[C@@H](CC(C)C)C(=O)N[C@@H](Cc1c[nH]cn1)C(=O)N[C@@H](CCCCN)C(=O)N[C@@H](CC(C)C)C(=O)N[C@@H](CCC(N)=O)C(=O)N[C@H](C(=O)N[C@@H](Cc1ccc(O)cc1)C(=O)N1CCC[C@H]1C(=O)N[C@@H](CCCNC(=N)N)C(=O)N[C@H](C(=O)N[C@@H](CC(N)=O)C(=O)N[C@H](C(=O)NCC(=O)N[C@@H](CO)C(=O)NCC(=O)N[C@H](C(=O)N1CCC[C@H]1C(N)=O)[C@@H](C)O)[C@@H](C)O)[C@@H](C)O)[C@@H](C)O [salmon calcitonin]
